Assay results as given in PubChem BioAssay AID248 (DTP/NCI, 2004).
Values joined by “and” are separate entries in the source; they are usually repeats but may differ in a detail not shown here. Identical values can stand only once. Toxic doses and inconclusive results are not listed. Cut-off read from the data, not from the text of the source: active = T/C of 150% or more; inactive = T/C below 125%.

Tested on: L1210 leukemia ip in BDF1 mice, survival T/C
Experiment: NCI In Vivo Anticancer Drug Screen. Data for tumor model L1210 Leukemia (intraperitoneal) in B6D2F1 (BDF1) mice
Conditions: endpoint: mean survival time, higher = longer survival
In short: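 Transplantable tumor model; survival measured in treated vs vehicle control mice. Value = treated/control.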

[1] = dose: 100.0 mg/kg/injection, schedule: Q04DX003 (ip), vehicle: saline with Tween-80
[2] = dose: 200.0 mg/kg/injection, schedule: Q04DX003 (ip), vehicle: saline with Tween-80
[3] = dose: 400.0 mg/kg/injection, schedule: Q04DX003 (ip), vehicle: saline with Tween-80
[4] = dose: 100.0 mg/kg/injection, schedule: Q01DX001 (ip), vehicle: Klucel (hydroxypropylcellulose) (HPC)
[5] = dose: 100.0 mg/kg/injection, schedule: Q01DX009 (ip), vehicle: Klucel (hydroxypropylcellulose) (HPC)
[6] = dose: 100.0 mg/kg/injection, schedule: Q04DX003 (ip), vehicle: Klucel (hydroxypropylcellulose) (HPC)
[7] = dose: 200.0 mg/kg/injection, schedule: Q01DX001 (ip), vehicle: Klucel (hydroxypropylcellulose) (HPC)
[8] = dose: 200.0 mg/kg/injection, schedule: Q01DX009 (ip), vehicle: Klucel (hydroxypropylcellulose) (HPC)
[9] = dose: 200.0 mg/kg/injection, schedule: Q04DX003 (ip), vehicle: Klucel (hydroxypropylcellulose) (HPC)
[10] = dose: 400.0 mg/kg/injection, schedule: Q01DX009 (ip), vehicle: Klucel (hydroxypropylcellulose) (HPC)
[11] = dose: 400.0 mg/kg/injection, schedule: Q04DX003 (ip), vehicle: Klucel (hydroxypropylcellulose) (HPC)
[12] = dose: 100.0 mg/kg/injection, schedule: Q01DX009 (ip), vehicle: saline with Tween-80
[13] = dose: 200.0 mg/kg/injection, schedule: Q01DX009 (ip), vehicle: saline with Tween-80
[14] = dose: 100.0 mg/kg/injection, schedule: Q01DX009 (ip), vehicle: saline
[15] = dose: 100.0 mg/kg/injection, schedule: Q04DX003 (ip), vehicle: saline
[16] = dose: 200.0 mg/kg/injection, schedule: Q01DX009 (ip), vehicle: saline
[17] = dose: 200.0 mg/kg/injection, schedule: Q04DX003 (ip), vehicle: saline
[18] = dose: 50.0 mg/kg/injection, schedule: Q01DX001 (ip), vehicle: Klucel (hydroxypropylcellulose) (HPC)
[19] = dose: 100.0 mg/kg/injection, schedule: Q04DX002 (ip), vehicle: saline with Tween-80
[20] = dose: 200.0 mg/kg/injection, schedule: Q04DX002 (ip), vehicle: saline with Tween-80
[21] = dose: 400.0 mg/kg/injection, schedule: Q04DX002 (ip), vehicle: saline with Tween-80
[22] = dose: 100.0 mg/kg/injection, schedule: Q01DX001 (ip), vehicle: saline
[23] = dose: 200.0 mg/kg/injection, schedule: Q01DX001 (ip), vehicle: saline
[24] = dose: 400.0 mg/kg/injection, schedule: Q01DX001 (ip), vehicle: saline

Measured: T/C

COc1ccc(CN(CCN(C)C)c2ccccn2)cc1
inactive: dose: 12.5 mg/kg/injection, schedule: Q01DX009 (ip), vehicle: Klucel (hydroxypropylcellulose) (HPC) 97 % of control | dose: 12.5 mg/kg/injection, schedule: Q04DX003 (ip), vehicle: Klucel (hydroxypropylcellulose) (HPC) 94 % of control | dose: 25.0 mg/kg/injection, schedule: Q01DX009 (ip), vehicle: Klucel (hydroxypropylcellulose) (HPC) 94 % of control | dose: 25.0 mg/kg/injection, schedule: Q04DX003 (ip), vehicle: Klucel (hydroxypropylcellulose) (HPC) 93 % of control | dose: 50.0 mg/kg/injection, schedule: Q01DX009 (ip), vehicle: Klucel (hydroxypropylcellulose) (HPC) 93 % of control | dose: 50.0 mg/kg/injection, schedule: Q04DX003 (ip), vehicle: Klucel (hydroxypropylcellulose) (HPC) 93 % of control and 94 % of control

Brc1ccc([Si](c2ccccc2)(c2ccccc2)c2ccccc2)cc1
inactive: [1] 97 % of control | [2] 92 % of control | [3] 89 % of control

O=S1(=O)CC(c2cccc3ccccc23)Nc2ccccc21 (stereo not given)
inactive: [4] 97 % of control | [5] 95 % of control | [6] 95 % of control | [7] 93 % of control | [8] 95 % of control | [9] 90 % of control | dose: 400.0 mg/kg/injection, schedule: Q01DX001 (ip), vehicle: Klucel (hydroxypropylcellulose) (HPC) 89 % of control | [10] 94 % of control | [11] 97 % of control

Cc1ccc(-n2c(=O)[nH]c3c(c2=O)C(c2ccc(Cl)cc2)C(C)(C)O3)cc1 (stereo not given)
inactive: dose: 12.5 mg/kg/injection, schedule: Q01DX001 (ip), vehicle: saline 97 % of control | dose: 12.5 mg/kg/injection, schedule: Q04DX003 (ip), vehicle: saline 107 % of control | dose: 25.0 mg/kg/injection, schedule: Q04DX003 (ip), vehicle: saline 101 % of control | dose: 50.0 mg/kg/injection, schedule: Q01DX001 (ip), vehicle: saline 96 % of control | dose: 50.0 mg/kg/injection, schedule: Q04DX003 (ip), vehicle: saline 90 % of control | dose: 75.0 mg/kg/injection, schedule: Q04DX003 (ip), vehicle: saline 97 % of control | dose: 113.0 mg/kg/injection, schedule: Q04DX003 (ip), vehicle: saline 94 % of control | dose: 169.0 mg/kg/injection, schedule: Q04DX003 (ip), vehicle: saline 95 % of control

CC(=O)c1cccc(NC(=O)c2c(Br)c(Br)c(Br)c(Br)c2C(=O)O)c1
inactive: [5] 97 % of control | [8] 104 % of control | [10] 109 % of control

CCc1cc(Cl)ccc1OCC(=O)O
inactive: [12] 97 % of control | [13] 105 % of control

CN1CCN(CCSC(=O)C(O)(c2ccccc2)C2CCCC2)CC1 (stereo not given)
inactive: dose: 150.0 mg/kg/injection, schedule: Q01DX001 (ip), vehicle: saline 102 % of control

O=C1/C(=C/c2ccco2)CC2CCCCC12 (stereo not given)
inactive: dose: 50.0 mg/kg/injection, schedule: Q01DX009 (ip), vehicle: saline 95 % of control | [14] 102 % of control | [15] 88 % of control | [16] 90 % of control | [17] 102 % of control

O=C(OCc1ccccc1CN1CCCC1)c1ccccc1
inactive: dose: 25.0 mg/kg/injection, schedule: Q01DX001 (ip), vehicle: Klucel (hydroxypropylcellulose) (HPC) 98 % of control | [18] 95 % of control | [4] 98 % of control and 102 % of control

CC(=O)NC1CCC(Cc2ccccc2)CC1 (stereo not given)
inactive: [19] 97 % of control | [20] 90 % of control | [21] 116 % of control

COC(=O)C(=O)NCc1cnccn1
inactive: [14] 105 % of control | [15] 93 % of control | [16] 110 % of control | [17] 107 % of control | dose: 400.0 mg/kg/injection, schedule: Q01DX009 (ip), vehicle: saline 111 % of control | dose: 400.0 mg/kg/injection, schedule: Q04DX003 (ip), vehicle: saline 100 % of control

C=CCN(CC=C)c1nn[nH]n1
inactive: [6] 92 % of control | [9] 88 % of control | [11] 88 % of control

CN(C)CCN1C(=O)c2ccc3c4c(ccc(c24)C1=O)C(=O)N(CCN(C)C)C3=O
inactive: [18] 96 % of control | [4] 94 % of control | [7] 89 % of control

NC(=O)NC1CCCCCC1
inactive: [1] 94 % of control | [2] 91 % of control | [3] 91 % of control

O=C(Nc1ccc(O)cc1)Sc1ccccc1
inactive: dose: 75.0 mg/kg/injection, schedule: Q01DX001 (ip), vehicle: gum acacia 107 % of control

CN(C)N=Nc1nn(C2OC(CO)C(O)C2O)cc1C(N)=O (stereo not given)
inactive: dose: 100.0 mg/kg/injection, schedule: Q01DX005 (ip), vehicle: saline 121 % of control | dose: 200.0 mg/kg/injection, schedule: Q01DX005 (ip), vehicle: saline 113 % of control

C[N+]1=NN(c2nc[nH]c2C(N)=O)CC1
inactive: dose: 100.0 mg/kg/injection, schedule: Q04DX002 (ip), vehicle: saline 96 % of control | dose: 200.0 mg/kg/injection, schedule: Q04DX002 (ip), vehicle: saline 100 % of control | dose: 400.0 mg/kg/injection, schedule: Q04DX002 (ip), vehicle: saline 115 % of control

Nc1ncnc2sc(SCc3ccccc3)nc12
inactive: [1] 107 % of control | [2] 102 % of control | [3] 100 % of control

C/C(=N/N=C(N)N)c1ccc(Cl)cc1
inactive: dose: 15.0 mg/kg/injection, schedule: Q01DX Z (ip), vehicle: carboxymethylcellulose (CMC) 96 % of control | dose: 15.0 mg/kg/injection, schedule: Q01DX Z (oral), vehicle: carboxymethylcellulose (CMC) 108 % of control | dose: 30.0 mg/kg/injection, schedule: Q01DX Z (ip), vehicle: carboxymethylcellulose (CMC) 95 % of control | dose: 30.0 mg/kg/injection, schedule: Q01DX Z (oral), vehicle: carboxymethylcellulose (CMC) 104 % of control | dose: 60.0 mg/kg/injection, schedule: Q01DX Z (oral), vehicle: carboxymethylcellulose (CMC) 98 % of control

O=C(Nc1ccc2c(c1)Cc1cc(Br)ccc1-2)C(F)(F)F
inactive: [12] 97 % of control | [13] 92 % of control | dose: 400.0 mg/kg/injection, schedule: Q01DX009 (ip), vehicle: saline with Tween-80 94 % of control

O=C(CCCO)NCCS(=O)c1ccccc1 (stereo not given)
inactive: [19] 107 % of control | [20] 101 % of control | [21] 111 % of control

c1ccc2c(c1)NC(c1cccc3ccccc13)S2 (stereo not given)
inactive: [22] 94 % of control | [23] 100 % of control | [24] 94 % of control

N=C1C=C(N)C(=O)c2ccccc21
inactive: dose: 0.78 mg/kg/injection, schedule: Q01DX009 (ip), vehicle: Klucel (hydroxypropylcellulose) (HPC) 103 % of control | dose: 1.56 mg/kg/injection, schedule: Q01DX009 (ip), vehicle: Klucel (hydroxypropylcellulose) (HPC) 103 % of control | dose: 3.13 mg/kg/injection, schedule: Q01DX009 (ip), vehicle: Klucel (hydroxypropylcellulose) (HPC) 107 % of control | [12] 101 % of control

CCC[N+](CCC)(CCC)Cc1ccccc1
inactive: dose: 5.0 mg/kg/injection, schedule: Q01DX001 (ip), vehicle: saline 108 % of control | dose: 10.0 mg/kg/injection, schedule: Q01DX001 (ip), vehicle: saline 98 % of control | dose: 20.0 mg/kg/injection, schedule: Q01DX001 (ip), vehicle: saline 96 % of control

O=[N+]([O-])c1ccc(Cl)cc1/C=N/NC(=S)Nc1cccc2cccnc12
inactive: [22] 100 % of control | [23] 103 % of control | [24] 100 % of control

NC1(C(=O)c2ccccc2)CC2CCC1C2 (stereo not given)
inactive: [6] 101 % of control | [9] 98 % of control | [11] 103 % of control

CP1(=S)CCC(O)(c2ccccc2)CC1 (stereo not given)
inactive: [21] 88 % of control

COC(=O)C(OC)(OC)C(OC)OC
inactive: [22] 97 % of control | [23] 103 % of control | [24] 106 % of control

CCCCCCCCCCCCCCCC(=O)Nc1cccc(C)c1C
inactive: [19] 93 % of control | [20] 86 % of control
